Test results as given in ChEMBL document CHEMBL4350967, “The Trifluoromethyl Group as a Bioisosteric Replacement of the Aliphatic Nitro Group in CB1 Receptor Positive Allosteric Modulators” (J Med Chem, 2019).

Assays:
Cannabinoid receptor 1 [1] = molecular target: T1, Cannabinoid receptor 1 (Homo sapiens, UniProt P21554); assay: Agonist activity at human Gi/Go-coupled CB1 receptor expressed in CHOK1 cells assessed as inhibition of forskolin-stimulated cAMP production measured after 30 mins by Hit-hunter assay
Cannabinoid receptor 1 [2] = molecular target: T1, Cannabinoid receptor 1; assay: Positive allosteric modulation of human CB1 receptor expressed in CHOK1 cells assessed as increase in CP55940-induced beta-arrestin recruitment preincubated for 30 mins followed by CP55940 addition and measured after 90 to 180 mins by PathHunter assay; assay type: cell-based
Cannabinoid receptor 1 [3] = molecular target: T1, Cannabinoid receptor 1; assay: Agonist activity at human CB1 receptor expressed in CHOK1 cells assessed as induction of beta-arrestin recruitment measured after 30 mins by PathHunter assay; assay type: cell-based
Cannabinoid receptor 1 [4] = molecular target: T1, Cannabinoid receptor 1
Cannabinoid receptor 1 [5] = molecular target: T1, Cannabinoid receptor 1; assay: Agonist activity at human Gi/Go-coupled CB1 receptor expressed in CHOK1 cells assessed as inhibition of forskolin-stimulated cAMP production measured after 30 mins by Hit-hunter assay relative to CP55940; assay type: cell-based; settings: 0.5 h, read-out: Emax
Cannabinoid receptor 1 [6] = molecular target: T1, Cannabinoid receptor 1; assay: Positive allosteric modulation of human CB1 receptor expressed in CHOK1 cells assessed as increase in CP55940-induced beta-arrestin recruitment at 1 uM preincubated for 30 mins followed by CP55940 addition and measured after 90 to 180 mins by PathHunter assay relative to CP55940; assay type: cell-based
Cannabinoid receptor 1 [7] = molecular target: T1, Cannabinoid receptor 1; assay: Positive allosteric modulation of human CB1 receptor expressed in CHOK1 cells assessed as increase in CP55940-induced beta-arrestin recruitment at 500 nM preincubated for 30 mins followed by CP55940 addition and measured after 90 to 180 mins by PathHunter assay relative to CP55940; assay type: cell-based
[8] = Half life in rat liver microsomes at 3 uM in presence of NADPH by LC-MS/MS analysis; assay type: ADME, Microsome
[9] = Half life in human liver microsomes at 3 uM in presence of NADPH by LC-MS/MS analysis; assay type: ADME, Microsome
Cannabinoid receptor 1 [10] = molecular target: T1, Cannabinoid receptor 1; assay: Positive allosteric modulation of human CB1 receptor expressed in CHOK1 cells assessed as increase in CP55940-induced beta-arrestin recruitment preincubated for 30 mins followed by CP55940 addition and measured after 90 to 180 mins by PathHunter assay relative to CP55940; assay type: cell-based
Cannabinoid receptor 1 [11] = molecular target: T1, Cannabinoid receptor 1; assay: Positive allosteric modulation of human CB1 receptor expressed in CHOK1 cells assessed as increase in CP55940-induced beta-arrestin recruitment at 200 nM preincubated for 30 mins followed by CP55940 addition and measured after 90 to 180 mins by PathHunter assay relative to CP55940; assay type: cell-based
Cannabinoid receptor 1 [12] = molecular target: T1, Cannabinoid receptor 1; assay: Positive allosteric modulation of human CB1 receptor expressed in CHOK1 cells assessed as increase in CP55940-induced beta-arrestin recruitment at 1000 nM preincubated for 30 mins followed by CP55940 addition and measured after 90 to 180 mins by PathHunter assay relative to CP55940; assay type: cell-based

T1 sequence (P21554 whole entry): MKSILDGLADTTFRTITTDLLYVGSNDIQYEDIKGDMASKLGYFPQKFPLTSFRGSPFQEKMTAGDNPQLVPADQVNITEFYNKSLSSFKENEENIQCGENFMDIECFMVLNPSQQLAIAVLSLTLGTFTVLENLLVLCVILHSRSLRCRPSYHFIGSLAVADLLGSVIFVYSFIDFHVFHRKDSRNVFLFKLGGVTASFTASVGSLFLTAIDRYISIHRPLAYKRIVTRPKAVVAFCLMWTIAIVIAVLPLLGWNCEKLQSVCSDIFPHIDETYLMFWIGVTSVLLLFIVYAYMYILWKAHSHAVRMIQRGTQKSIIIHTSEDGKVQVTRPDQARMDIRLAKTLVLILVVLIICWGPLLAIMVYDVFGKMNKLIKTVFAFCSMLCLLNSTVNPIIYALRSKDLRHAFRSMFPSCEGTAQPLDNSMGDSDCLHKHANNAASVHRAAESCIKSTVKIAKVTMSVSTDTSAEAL

Activity (Cannabinoid receptor 1 [6]) | Compound | t1/2 [8] | t1/2 [9] | other results
 | N#Cc1ccc2c([C@H](CC(F)(F)F)c3cccs3)c(-c3ccccc3)[nH]c2c1 |  |  | EC50 (Cannabinoid receptor 1 [1]): 0.076 µM; EC50 (Cannabinoid receptor 1 [2]): 0.342 µM; EC50 (Cannabinoid receptor 1 [3]): 1.21 µM; EC50 (Cannabinoid receptor 1 [4]): 0.04 µM; Emax (Cannabinoid receptor 1 [5]): 89%
 | FC(F)(F)CC(c1cccs1)c1c(C2CCCC2)[nH]c2cc(C(F)(F)F)ccc12 (racemic) | 44.4 min | 47.1 min | EC50 (Cannabinoid receptor 1 [2]): 0.301 µM; EC50 (Cannabinoid receptor 1 [3]): 0.755 µM; Activity (Cannabinoid receptor 1 [7]): > 50%; Emax (Cannabinoid receptor 1 [10]): 162%
 | CC(=O)c1ccc2c(C(CC(F)(F)F)c3cccs3)c(-c3ccccc3)[nH]c2c1 (racemic) | 12.2 min | 51.2 min | EC50 (Cannabinoid receptor 1 [2]): 0.158 µM; EC50 (Cannabinoid receptor 1 [3]): 0.741 µM; Emax (Cannabinoid receptor 1 [10]): 121%; Activity (Cannabinoid receptor 1 [11]): > 50%
 | Cc1ccc2c(C(c3cccs3)C(C#N)C#N)c(-c3ccccc3)[nH]c2c1 (racemic) | 4.9 min | 31.2 min | Activity (Cannabinoid receptor 1 [12]): > 50%
 | O=C(O)CC(c1ccccc1)c1c(-c2ccccc2)[nH]c2ccccc12 (racemic) |  | 62.7 min | 
 | O=[N+]([O-])CC(c1cccs1)c1c(-c2ccccc2)[nH]c2cc(C(F)(F)F)ccc12 (racemic) | 15.6 min | 30.7 min | EC50 (Cannabinoid receptor 1 [2]): 0.284 µM; EC50 (Cannabinoid receptor 1 [3]): 0.974 µM
 | N#CCC(c1ccccc1)c1c(-c2ccccc2)[nH]c2cc(Cl)ccc12 (racemic) | 22.5 min | 43.2 min | EC50 (Cannabinoid receptor 1 [2]): 1.11 µM; EC50 (Cannabinoid receptor 1 [3]): 2.35 µM
< 50% | Cc1ccc2c(C(C[N+](=O)[O-])c3cccs3)c(-c3ccc(Cl)cc3)[nH]c2c1 (racemic) | 9.8 min | 24.2 min | 
 | O=[N+]([O-])CC(c1cccs1)c1c(-c2ccccc2)[nH]c2cc(Cl)ccc12 (racemic) | 13.8 min | 32.7 min | EC50 (Cannabinoid receptor 1 [2]): 0.462 µM; EC50 (Cannabinoid receptor 1 [3]): 1.53 µM; Activity (Cannabinoid receptor 1 [7]): > 50%
30 to 50% | OC(C(c1ccccc1)c1c(-c2ccccc2)[nH]c2ccccc12)C(F)(F)F (racemic) | 18.2 min | 39.4 min | 
 | FC(F)(F)CC(c1cccs1)c1c(-c2ccccc2)[nH]c2cc(C(F)(F)F)ccc12 (racemic) | 36.7 min | 49.7 min | EC50 (Cannabinoid receptor 1 [2]): 0.322 µM; EC50 (Cannabinoid receptor 1 [3]): 0.801 µM; Activity (Cannabinoid receptor 1 [7]): > 50%; Emax (Cannabinoid receptor 1 [10]): 203%
< 50% | CC(=O)Nc1ccc2c(C(CC(F)(F)F)c3cccs3)c(-c3ccccc3)[nH]c2c1 (racemic) |  |  | 
< 50% | CC(=O)c1ccc(-c2[nH]c3cc(Cl)ccc3c2C(C[N+](=O)[O-])c2cccs2)cc1 (racemic) |  |  | 
< 50% | CN(C)c1ccc(-c2[nH]c3cc(Cl)ccc3c2C(C[N+](=O)[O-])c2cccs2)cc1 (racemic) |  |  | 
< 50% | COC(=O)c1ccc(-c2[nH]c3cc(Cl)ccc3c2C(C[N+](=O)[O-])c2cccs2)cc1 (racemic) |  |  | 
 | COC(=O)c1ccc2c(C(CC(F)(F)F)c3cccs3)c(-c3ccccc3)[nH]c2c1 (racemic) |  |  | Emax (Cannabinoid receptor 1 [10]): 88%; Activity (Cannabinoid receptor 1 [11]): > 50%
< 50% | COc1ccc(-c2[nH]c3cc(Cl)ccc3c2C(C[N+](=O)[O-])c2cccs2)cc1 (racemic) |  |  | 
< 50% | COc1cccc(-c2[nH]c3cc(Cl)ccc3c2C(C[N+](=O)[O-])c2cccs2)c1 (racemic) |  |  | 
< 50% | CS(=O)(=O)Nc1ccc2c(C(CC(F)(F)F)c3cccs3)c(-c3ccccc3)[nH]c2c1 (racemic) |  |  | 
< 50% | CS(=O)(=O)c1ccc(-c2[nH]c3cc(Cl)ccc3c2C(C[N+](=O)[O-])c2cccs2)cc1 (racemic) |  |  | 
< 50% | Cc1ccc2[nH]c(-c3ccccc3)c(C(CC(F)(F)F)c3ccccc3)c2c1 (racemic) |  |  | 
< 50% | Cc1ccc2[nH]c(-c3ccccc3)c(C(CC(F)(F)F)c3cccs3)c2c1 (racemic) |  |  | 
 | Cc1ccc2[nH]c(-c3ccccc3)c(C(C[N+](=O)[O-])c3cccs3)c2c1 (racemic) |  |  | Activity (Cannabinoid receptor 1 [12]): > 50%
 | Cc1ccc2c(C(CC#N)c3ccccc3)c(-c3ccccc3)[nH]c2c1 (racemic) |  |  | Activity (Cannabinoid receptor 1 [12]): > 50%
 | Cc1ccc2c(C(CC(F)(F)F)c3ccco3)c(-c3ccccc3)[nH]c2c1 (racemic) |  |  | Activity (Cannabinoid receptor 1 [12]): > 50%

Compound | Activity (Cannabinoid receptor 1 [6]) | t1/2 [8] | t1/2 [9] | other results
CC(C)CN(C(=O)C(F)(F)F)c1c(-c2ccccc2)[nH]c2ccccc12 | 50% |  |  | 
O=C(N(CC1CC1)c1c(-c2ccccc2)[nH]c2ccccc12)C(F)(F)F | 50% |  |  | 
N#Cc1ccc2[nH]c(C3CCCCC3)c(C(C[N+](=O)[O-])c3cccs3)c2c1 (racemic) | < 50% | 3.8 min | 21.4 min | 
N#CC(C#N)C(c1ccccc1)c1c(-c2ccccc2)[nH]c2cc(Cl)ccc12 (racemic) | < 50% | 13.5 min | 29.6 min | 
N#Cc1ccc2[nH]c(-c3ccccc3)c(C(C[N+](=O)[O-])c3cccs3)c2c1 (racemic) | < 50% | 8.2 min | 49.4 min | 
